# US20240174603A1 (Rappta Therapeutics Oy, priority 2021, published 2024)
# System: LNCaP cells
# Assay: LNCaP cell viability assay (MTS)
# Assay type: cell-based
# Settings: Homo sapiens, LNCaP, 48 h, LNCaP cell line
# Method: LNCaP cell line was used for the cell viability assay. LNCaP cells were plated in 96-well plates at a density of 5000 cells per well. After 24 hours of plating, the cells were treated with increasing doses of compound (e.g., compounds 1-269) ranging from 1 μM to 80 μM. Relative cell numbers were analyzed after 48 hours using 3-(4,5-dimethylthiazol-2-yl)-5-(3-carboxymethoxyphenyl)-2-(4-sulfophenyl)-2H-tetrazolium (MTS) assay (Promega) according to the manufacturer's instructions.
# The cell viability data was analyzed with GraphPad Prism software. The values were log transformed and analyzed with non-linear regression (curve-fit) using log(inhibitor) vs. response-variable slope (four parameters) and constraining the bottom to equal zero. Unless otherwise indicated, the GI50 values provided in Table 113 correspond to the LNCaP cell viability assays.
row,Compound,GI50 [µM]
1,"CCOC(=O)C(Cc1ccccc1Cl)NS(=O)(=O)c1ccc(OC(F)(F)F)cc1 (stereo not drawn) [Compound 45, Ethyl 3-(2-chlorophenyl)-2-((4-(trifluoromethoxy)phenyl)sulfonamido)propanoate]",46
2,"CCOC(=O)CC(NS(=O)(=O)c1ccc(OC(F)(F)F)cc1)c1cccc(Br)c1 (stereo not drawn) [Compound 46, Ethyl 3-(3-bromophenyl)-3-((4-(trifluoromethoxy)phenyl)sulfonamido)propanoate]",49
3,"CCOC(=O)C(CC(C)CC)NS(=O)(=O)c1ccc(OC(F)(F)F)cc1 (stereo not drawn) [Compound 47, Ethyl 4-methyl-2-((4-(trifluoromethoxy)phenyl)sulfonamido)hexanoate]",70
4,"CN(Cc1ccccc1Br)C(=O)CCNS(=O)(=O)c1ccc(OC(F)(F)F)cc1 [Compound 48, N-(2-bromobenzyl)-N-methyl-3-((4-(trifluoromethoxy)phenyl)sulfonamido)propenamide]",43
5,"O=S(=O)(NCC1CCCCC1c1ccccc1)c1ccc(OC(F)(F)F)cc1 (stereo not drawn) [Compound 49, N-((2-phenylcyclohexyl)methyl)-4-(trifluoromethoxy)benzenesulfonamide]",39
6,"O=S(=O)(NCCC(O)(C(F)(F)F)C(F)(F)F)c1ccc(OC(F)(F)F)cc1 [Compound 50, N-(4,4,4-trifluoro-3-hydroxy-3-(trifluoromethyl)butyl)-4-(trifluoromethoxy)benzenesulfonamide]",71
7,"O=S(=O)(NCCC(c1ccccc1)C(F)(F)F)c1ccc(OC(F)(F)F)cc1 (stereo not drawn) [Compound 51, N-(4,4,4-trifluoro-3-phenylbutyl)-4-(trifluoromethoxy)benzenesulfonamide]",55
8,"CCC(C#N)Oc1cccc(CNS(=O)(=O)c2ccc(OC(F)(F)F)cc2)c1 (stereo not drawn) [Compound 52, N-(3-(1-cyanopropoxy)benzyl)-4-(trifluoromethoxy)benzenesulfonamide]",72
9,"COCCC1(CNS(=O)(=O)c2ccc(OC(F)(F)F)cc2)CCCCC1 [Compound 53, N-((1-(2-methoxyethyl)cyclohexyl)methyl)-4-(trifluoromethoxy)benzenesulfonamide]",66
10,"CC(C)CCOc1ccccc1CCNS(=O)(=O)c1ccc(OC(F)(F)F)cc1 [Compound 55, N-(2-(isopentyloxy)phenethyl)-4-(trifluoromethoxy)benzenesulfonamide]",57
11,"O=S(=O)(NCC1(c2cccc(C(F)(F)F)c2)CCC1)c1ccc(OC(F)(F)F)cc1 [Compound 57, 4-(trifluoromethoxy)-N-((1-(3-(trifluoromethyl)phenyl)cyclobutyl)methyl)benzenesulfonamide]",38
12,"Cc1ccc(C2(CNS(=O)(=O)c3ccc(OC(F)(F)F)cc3)CC2)c(C)c1 [Compound 60, N-((1-(2,4-dimethylphenyl)cyclopropyl)methyl)-4-(trifluoromethoxy)benzenesulfonamide]",44
13,"O=S(=O)(NCC1(c2cccs2)CCCC1)c1ccc(OC(F)(F)F)cc1 [Compound 61, N-((1-(thiophen-2-yl)cyclopentyl)methyl)-4-(trifluoromethoxy)benzenesulfonamide]",38
14,"O=S(=O)(NCc1cc(Cl)ccc1OC(F)F)c1ccc(OC(F)(F)F)cc1 [Compound 62, N-(5-chloro-2-(difluoromethoxy)benzyl)-4-(trifluoromethoxy)benzenesulfonamide]",70
15,"CC(C)CN(CCNS(=O)(=O)c1ccc(OC(F)(F)F)cc1)CC(C)C [Compound 63, N-(2-(diisobutylamino)ethyl)-4-(trifluoromethoxy)benzenesulfonamide]",60
16,"CC(C)(C)OC(=O)N1CC(F)(F)CC1CNS(=O)(=O)c1ccc(OC(F)(F)F)cc1 (stereo not drawn) [Compound 65, Tert-butyl 4,4-difluoro-2-(((4-(trifluoromethoxy)phenyl)sulfonamido)methyl)pyrrolidine-1-carboxylate]",43
17,"CC(Cc1c(Cl)cccc1Cl)NS(=O)(=O)c1ccc(OC(F)(F)F)cc1 (stereo not drawn) [Compound 67, N-(1-(2,6-dichlorophenyl)propan-2-yl)-4-(trifluoromethoxy)benzenesulfonamide]",50
18,"CCOC(=O)CC(NS(=O)(=O)c1ccc(OC(F)(F)F)cc1)c1ccc(OC(C)C)c(OC)c1 (stereo not drawn) [Compound 68, Ethyl 3-(4-isopropoxy-3-methoxyphenyl)-3-((4-(trifluoromethoxy)phenyl)sulfonamido)propanoate]",72
19,"CCC[C@@H](NS(=O)(=O)c1ccc(OC(F)(F)F)cc1)c1ccc2c(c1)OCO2 [Compound 73, (R)—N-(1-(benzo[d][1,3]dioxol-5-yl)butyl)-4-(trifluoromethoxy)benzenesulfonamide]",38
20,"Cc1ccc(CNS(=O)(=O)c2ccc(OC(F)(F)F)cc2)c(OCC(C)C)c1 [Compound 74, N-(2-isobutoxy-4-methylbenzyl)-4-(trifluoromethoxy)benzenesulfonamide]",60
21,"CCOc1ccccc1CNS(=O)(=O)c1ccc(OC(F)(F)F)cc1 [Compound 76, N-(2-ethoxybenzyl)-4-(trifluoromethoxy)benzenesulfonamide]",60
22,"CC(C)(C)Oc1ccccc1CNS(=O)(=O)c1ccc(OC(F)(F)F)cc1 [Compound 78, N-(2-(tert-butoxy)benzyl)-4-(trifluoromethoxy)benzenesulfonamide]",46
23,"O=S(=O)(NCCCN(Cc1ccco1)CC1CCCO1)c1ccc(OC(F)(F)F)cc1 (stereo not drawn) [Compound 79, N-(3-((furan-2-ylmethyl)((tetrahydrofuran-2-yl)methyl)amino)propyl)-4-(trifluoromethoxy)benzenesulfonamide]",49
24,"O=S(=O)(NCC1(Cc2ccc(Br)cc2)CC1)c1ccc(OC(F)(F)F)cc1 [Compound 81, N-((1-(4-bromobenzyl)cyclopropyl)methyl)-4-(trifluoromethoxy)benzenesulfonamide]",40
25,"CS(=O)(=O)c1cc(CNS(=O)(=O)c2ccc(OC(F)(F)F)cc2)cc(C(F)(F)F)c1 [Compound 82, N-(3-(methylsulfonyl)-5-(trifluoromethyl)benzyl)-4-(trifluoromethoxy)benzenesulfonamide]",64
26,"O=S(=O)(NCC1(CCOCc2ccccc2)CC1)c1ccc(OC(F)(F)F)cc1 [Compound 83, N-((1-(2-(benzyloxy)ethyl)cyclopropyl)methyl)-4-(trifluoromethoxy)benzenesulfonamide]",38

# These reach a lower GI50. Values come first.
row,GI50 [µM],Compound
1,33,"CCCCN(CCNS(=O)(=O)c1ccc(OC(F)(F)F)cc1)Cc1cccc(Cl)c1 [Compound 54, N-(2-(butyl(3-chlorobenzyl)amino)ethyl)-4-(trifluoromethoxy)benzenesulfonamide]"
2,30,"O=S(=O)(NCC1(c2c(Cl)cccc2Cl)CCC1)c1ccc(OC(F)(F)F)cc1 [Compound 56, N-((1-(2,6-dichlorophenyl)cyclobutyl)methyl)-4-(trifluoromethoxy)benzenesulfonamide]"
3,20,"CC(C)N(C)c1ccccc1CNS(=O)(=O)c1ccc(OC(F)(F)F)cc1 [Compound 58, N-(2-(isopropyl(methyl)amino)benzyl)-4-(trifluoromethoxy)benzenesulfonamide]"
4,23,"O=S(=O)(NCc1ccccc1COC1CCCCC1)c1ccc(OC(F)(F)F)cc1 [Compound 59, N-(2-((cyclohexyloxy)methyl)benzyl)-4-(trifluoromethoxy)benzenesulfonamide]"
5,36,"CCCCN(CCCNS(=O)(=O)c1ccc(OC(F)(F)F)cc1)Cc1ccccc1 [Compound 64, N-(3-(benzyl(butyl)amino)propyl)-4-(trifluoromethoxy)benzenesulfonamide]"
6,35,"CC[C@H](NS(=O)(=O)c1ccc(OC(F)(F)F)cc1)c1cc(F)ccc1F [Compound 66, (S)—N-(1-(2,5-difluorophenyl)propyl)-4-(trifluoromethoxy)benzenesulfonamide]"
7,9,"O=S(=O)(NC(c1cc(Cl)cc(Cl)c1)C1CCCCC1)c1ccc(OC(F)(F)F)cc1 (stereo not drawn) [Compound 69, N-(cyclohexyl(3,5-dichlorophenyl)methyl)-4-(trifluoromethoxy)benzenesulfonamide]"
8,25,"CC(NS(=O)(=O)c1ccc(OC(F)(F)F)cc1)C1(c2ccc(Br)cc2)CC1 (stereo not drawn) [Compound 70, N-(1-(1-(4-bromophenyl)cyclopropyl)ethyl)-4-(trifluoromethoxy)benzenesulfonamide]"
9,20,"C=CCCC(NS(=O)(=O)c1ccc(OC(F)(F)F)cc1)c1ccc(C(F)(F)F)cc1 (stereo not drawn) [Compound 71, 4-(trifluoromethoxy)-N-(1-(4-(trifluoromethyl)phenyl)pent-4-en-1-yl)benzenesulfonamide]"
10,17,"O=S(=O)(NC(CC1CC1)c1cc(F)cc(Br)c1)c1ccc(OC(F)(F)F)cc1 (stereo not drawn) [Compound 72, N-(1-(3-bromo-5-fluorophenyl)-2-cyclopropylethyl)-4-(trifluoromethoxy)benzenesulfonamide]"
11,30,"Cc1ccc(CNS(=O)(=O)c2ccc(OC(F)(F)F)cc2)c(OCC2CC2)c1 [Compound 75, N-(2-(cyclopropylmethoxy)-4-methylbenzyl)-4-(trifluoromethoxy)benzenesulfonamide]"
12,20,"CC(C)(C)OC(=O)N1CC(CNS(=O)(=O)c2ccc(OC(F)(F)F)cc2)OC(C)(C)C1 (stereo not drawn) [Compound 77, Tert-butyl 2,2-dimethyl-6-(((4-(trifluoromethoxy)phenyl)sulfonamido)methyl)morpholine-4-carboxylate]"
13,23,"O=S(=O)(NCC1(c2ccc(Br)cc2Cl)CC1)c1ccc(OC(F)(F)F)cc1 [Compound 80, N-((1-(4-bromo-2-chlorophenyl)cyclopropyl)methyl)-4-(trifluoromethoxy)benzenesulfonamide]"
